Holding throughout (format): cell-based, human
For assay [1], the system named is MCF-7 cells. Put plainly: Propidium iodide exclusion cell death assay, wild-type (parental/Blasto) MCF-7 cells. Particulars: MCF-7 cells, in the presence of cycloheximide. The protocol:
(§1) Cell viability assays. Propidium iodide exclusion assay: Cells were stimulated as indicated for 2 days. Subsequently, cells were harvested, washed twice in FACS buffer (PBS containing 1% FCS and 0.1% NaN3) and resuspended in propidium iodide (PI)-containing FACS buffer (4 ug/ml). The extent of cell death was analyzed with a FACSCalibur flow cytometer (Becton Dickinson, Mountain View, Calif.). DAPI staining: MCF-7 cells were plated in chamber slides, and stimulated for 2 days. Cells were washed with PBS and apoptotic nuclei were stained with 1 μg/ml DAPI (Sigma Chemical Co., St. Louis, Mo.). Cells were fixed in 4% paraformaldehyde and examined by fluorescence microscopy.
To further investigate the role of Nod1 in apoptosis, a variety of cell types were incubated with the Nod1 ligand, […] (γTriDAP), which specifically activates Nod1. The cell types tested included the parental MCF-7 cell line, the Nod1-deficient MCF-7C20 clone, and a cell line engineered to contain an additional human Nod1 allele (MCF-7Nod1) so that Nod1 was over-expressed. To determine whether the resistance of C20 cells to γTriDAP-induced apoptosis resulted from the absence of Nod1, human Nod1 was stably expressed in MCF-7 C20 cells to produce Nod1-sufficient C20 cells (C20/Nod1). As another control, the parental MCF-7 cell line was transfected with an empty retroviral vector to generate MCF-7 Blasto cells. Cells were treated with γTriDAP in the presence or absence of cycloheximide (CHX) and cell death was then determined by propidium iodide staining and flow cytometry.

Assay [2] concerns poly(ADP-ribose)polymerase (PARP) and capases 6, 7, 8 and 9. Description: Western blot of PARP and caspase cleavage in MCF-7 cells. The following applies: CHX 0.5 ug/ml, 24 h. The protocol:
Cleavage of PARP and various caspases was detected by Western blot analysis of cell MCF-7 Blasto, MCF-7 C20 and MCF-7 Nod1 after stimulation with γTriDAP, αTriDAP or medium (control) in the presence or absence of CHX (0.5 ug/ml) for 24 h. Cells were harvested, subjected to western blotting and PARP, caspases, p20, p41/43 and p35 were detected with antibodies reactive thereof.
Western blot analysis and immunoprecipitation. Cells were washed extensively and lysed using lysis buffer containing 50 mM Hepes, 100 mM NaCl, 2 mM EDTA, 10% glycerol, 1% Nonidet P-40, 14 μM pepstatin A, 100 uM leupeptin, 3 mM benzamidine, 1 mM PMSF, 1 mM sodium pyrophosphate, 10 mM sodium orthovanadate, 100 U/ml aprotinin, and 100 mM sodium fluoride. After incubation for 30 min on ice, cell lysates were centrifuged (14000 rpm, 10 min, 4° C.) and the supernatants were recovered. For immunoprecipitation, cell lysates were mixed with 5 μg of antibody for 3 hour at 4° C. under constant agitation. Immune complexes were allowed to bind to 20 μl protein A-Sepharose beads overnight, beads were washed three times with lysis buffer. Immunoprecipitates were separated on SDS-PAGE and transferred to PVDF membranes.
A general note: In western blotting, separated proteins are transferred to a membrane and probed.

Another assay deals with SK-BR3. Put plainly: Apoptosis (PI staining), SK-BR3 cells. The following applies: plus TNFα and cycloheximide (FIG. 9B). As to the method: as §1
To determine if Nod1-dependent apoptosis occurs in other human cell lines, a series of epithelial cell lines were examined where Nod1 was stably expressed to enhance sensitivity to activation of the Nod1 pathway. Cells were treated with TNFα (T) and γTriDAP (γ) in the presence or absence of CHX (C) and monitored for viability by PI staining as a measure of apoptosis (Table 1).

The test system of assay [3] is MCF-7 cells. Put plainly: Apoptosis in the presence of TNFα (FIG. 8C). The following applies: with TNFα. The protocol: FIG. 8A-D illustrate that a synergistic relationship exists between NOD1 and TNFα. FIG. 8A graphically illustrates that the percentage of apoptotic cells increases in dose-specific manner as the concentration of NOD1 increases from 0.0 to 100 μg/ml and the concentration of TNFα increases from 0.5 ng/ml to 1 ng/ml. FIG. 8B graphically illustrates that the percentage of apoptotic cells increases in dose-specific manner as the concentration of cycloheximide increases from 0.0 to 3 μg/ml and the concentration of TNFα increases from 0.5 ng/ml to 1 ng/ml. […] FIG. 8D illustrates NOD1 expression at various time points after exposure of MCF-7 cells to TNFα.

Assay [4] concerns MCF-7 cells expressing wild type RIP2, RIP2 KD or RIP2ΔCARD. Put plainly: Apoptosis (PI, flow cytometry) in MCF-7 cells stably expressing RIP2 constructs. Particulars: 20 μg/ml, CHX 3 μg/ml, 48 hr. As to the method: FIG. 13A-D illustrate that RIP2 is an important component of the Nod1 apoptotic pathway. […] MCF-7 cells were stably transfected with Myc-Nod1, Myc-RIP2 (wild type), Myc-RIP2 KD, and Myc-RIP2 ΔCARD. Test cells were then treated with γTriDAP, αTriDAP and MDP (20 μg/ml each) in the presence or absence of CHX (3 μg/ml) for 48 hr, while control cells were not treated with these agents. Cells were then incubated with propidium iodide (PI) and apoptotic cell death was measured by flow cytometry. FIG. 13B illustrates the effect of TNF upon apoptosis in the same MCF-7 cell lines described in FIG. 13A. These cells lines were treated with TNF (10 ng/ml) for 18 hr and apoptotic cell death was assessed as described for FIG. 13A. TNF increased apoptosis in all the cell lines tested. […] Cells were incubated in the presence of increasing concentrations of γTriDAP or MDP in the presence of CHX for 48 hr and apoptotic cell death was assessed as described for FIG. 13A. FIG. 13D illustrates IL-8 secretion by MCF-7 Blasto, MCF-7 Nod1 and MCF-7 RIP2 wild type cells after stimulation with γTriDAP in the presence of CHX ([…]) or TNF. […]
Cell viability assays. […] The extent of cell death was analyzed with a FACSCalibur flow cytometer (Becton Dickinson, Mountain View, Calif.). […] Cells were fixed in 4% paraformaldehyde and examined by fluorescence microscopy. […]

Assay [5] concerns MCF-7 Nod2 cells. Description: Apoptosis (PI, flow cytometry) in MCF-7 cells over-expressing Nod2. Particulars: 20 ug/ml plus CHX, 48 h. The protocol:
(§2) In FIG. 5A, MCF-7 Blasto, MCF-7 Nod1 and MCF-7 Nod2 were treated with the NOD1 ligand γTriDAP or the Nod2 ligand muramyl dipeptide (MDP)(20 ug/ml each) in the presence or absence of CHX for 48 h. Cells were then incubated with PI and apoptotic cell death was measured by flow cytometry. […] In FIG. 5B, expression of NOD1 and NOD2 was confirmed by Western blot analysis using anti-Myc antibodies for detection of the recombinant proteins. […] MCF-7 Blasto, MCF-7 Nod1 and MCF-7 Nod2 cells were stimulated with γTriDAP or MDP in the presence or absence of CHX (0.5 ug/ml) for 24 h. Cell supernatants were then harvested and assayed for IL-8 secretion.
Cell viability assays. Propidium iodide exclusion assay: Cells were stimulated as indicated for 2 days. […] The extent of cell death was analyzed with a FACSCalibur flow cytometer (Becton Dickinson, Mountain View, Calif.). […] Cells were fixed in 4% paraformaldehyde and examined by fluorescence microscopy.
(§3) Experiments were also performed to ascertain whether activation of Nod2 by its specific activator, muramyl dipeptide (MDP), would initiate apoptosis in parental MCF-7 cells or in MCF-7 cells over-expressing Nod2 (MCF-7 Nod2). Thus, γTriDAP or MDP were added to each of these lines and apoptosis (FIG. 5A) and IL-8 production (FIG. 5C) were measured. […]
A general note: A flow cytometer gives signals particle by particle.

In assay [6] the test system is MCF-7 Nod2 cells. Description: IL-8 secretion (ELISA) in MCF-7 Nod2 cells. The following applies: 24 h. The protocol: as §2
IL-8 ELISA. Concentrations of IL-8 in the culture supernatants of transfected HeLa cells were measured by ELISA using 96-well Immunlon plates (Dynatech Laboratories, Chantilly, Va.). ELISA was performed using the mAb MAB208 for capture and a biotinylated polyclonal rabbit anti-human IL-8 Ab (R&D Systems, Minneapolis, Minn.) followed by streptavidin HRP for detection.
as §3
On the technique in general: ELISA stands for enzyme-linked immunosorbent assay.

Assay [7] has as its system MCF-7 C20 cells with Nod2. Description: Apoptosis in MCF-7 C20 cells complemented with Nod2. Particulars: MCF-7 C20 complemented with Nod2 (data not shown).

Starred links: 1 amine or outer side, 2 acyl side, 3 side chain; linkers in the order of their positions; H or OH if unused. Non-standard residues stand in square brackets, D forms with d. No end group written: not given here. mesoDAP = meso-diaminopimelic acid, O=C(O)[C@@H](CCC[C@H](N[*:1])C(=O)[*:2])N[*:3]

Consider “αTriDAP: inactive control tri-peptide where mesoDAP was bound to Glu in the α position rather than in the γ position (Ala-Glu-[mesoDAP]; not fully specified)”, for which the cell death entry in the assay with MCF-7 cells [1] is reported as “did not induce cell death”. Moreover, in assay [2], the “proteolytic cleavage of PARP and capases 6, 7, 8 and 9” value is given as “not”. Besides, the “apoptosis of SKBR3 cells” value in the assay with SK-BR3 was “reduced apoptosis”. In the assay on MCF-7 cells [3], the “apoptosis in the presence of TNFα” value was “may actually inhibit apoptosis”.
Regarding muramyl dipeptide [MDP], the apoptosis entry in assay [4] (cells expressing RIP2 KD) is on record as “effective at inducing high levels of apoptosis”; in assay [4] (cells expressing either wild type RIP2 or RIP2ΔCARD) it was “not”; with MCF-7 Nod2 cells [5], “did not undergo increased apoptosis”; in assay [7], “did not result in apoptosis”. Moreover, in the assay on MCF-7 Nod2 cells [6], the IL-8 secretion entry was “did result in IL-8 secretion”.

Values taken from patent publication US20090028795A1, “NOD1 as an Anti-Tumor Agent” (priority 2005, published 2009).
